Test results reported in paper PMC5881420, “Identification, Expression Patterns, and Functional Characterization of Chemosensory Proteins in Dendroctonus armandi (Coleoptera: Curculionidae: Scolytinae)” (Frontiers in Physiology, 2018).

Tested on: DarmCSP3
Test: Fluorescence binding assay of 1-NPN with DarmCSP3
Set-up: species or system Dendroctonus armandi
Settings: DarmCSP3, 2 μM protein titrated with 1-NPN
Excerpt: (§1) To better characterize DarmCSP function, three antennae-preferential genes (DarmCSP 1–3) were chosen for expression in bacteria. Signal peptides were removed to generate properly folded proteins. PCR products encoding mature proteins were amplified using gene-specific primers (Table S1), cloned into pGEM-T easy vectors (Promega, Madison, USA), then excised and cloned into the bacterial expression vector pET32a(+) (Novagen, Madison, WI), between BamHI and XhoI restriction sites. Successful cloning was verified through PCR and sequencing. Plasmids containing the correct insert were extracted and transformed into E. coli BL21 (DE3) competent cells. Positive clones were incubated at 37°C until absorbance = 0.6 at OD 600, and protein expression was induced with IPTG (isopropyl-β-D-1-thiogalactopyranoside) treatment (28°C for 6 h) to a final concentration of 0.5 mM. […]
(§2) Recombinant proteins were purified with N-termini His tagged from the supernatant using a Ni-NTA-Sefinose Column (Sangon, Shanghai, China), and placed in a buffer (25 mM Tris-HCl, 50 mM NaCl, and 2 mM CaCl2, pH 7.6) for dialysis. To avoid confounding effects in fluorescence binding assays, His-tags were excised using Recombinant Enterokinase with His-tag (rEK) (Sangong, Shanghai, China), and the resultant complex was cleared through a Ni-NTA-Sefinose Column. […]

| Molecule | Affinity to 1-NPN |
| --- | --- |
| c1ccc(Nc2cccc3ccccc23)cc1 [1-NPN, N-phenyl-1-naphthylamine] | no obvious affinity |

Molecular target: DarmCSP2 (Dendroctonus armandi, UniProt A0A3S7PYZ0)
Sequence (A0A3S7PYZ0 entry or part of it): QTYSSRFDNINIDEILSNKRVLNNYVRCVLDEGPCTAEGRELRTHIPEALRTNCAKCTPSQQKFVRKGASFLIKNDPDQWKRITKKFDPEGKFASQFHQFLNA
Test: Fluorescence competitive binding assay (1-NPN displacement)
Settings: 2 μM DarmCSP2 and 2 μM 1-NPN titrated with ligand 2–16 μM; three independent measurements
Description: A Hitachi F-4500 fluorescence spectrophotometer was used to measure emission fluorescence spectra, in a right-angle configuration with a 1 cm light-path quartz cuvette. The slit width was […] for both excitation and emission. DarmCSPs were dissolved to 2 μM in 50 mM Tris-HCl buffer (pH = 7.4), whereas fluorescent probe N-phenyl-1-naphthylamine (1-NPN) and all semiochemicals were dissolved in methanol with a 1 mM stock solution. […] Excitation of 1-NPN occurred at 337 nm, with the emission spectra recorded from 360 to 500 nm. Corresponding fluorescence intensity values were plotted against free 1-NPN concentration to determine DarmCSP binding constants. Bound 1-NPN concentrations were assessed based on fluorescence intensity, assuming DarmCSPs were 100% active and protein: ligand = 1:1 at saturation. The dissociation-constants curve was linearized with Scatchard plots in Prism 6.0 (GraphPad Software, CA, USA).
Ligand affinity was measured with competitive binding assays. Fourteen compounds were selected based on previous reports (Zhang et al., [2010]; Xie and Lv, [2012]; Chen et al., [2015]; Zhao et al., [2017a],[b]), including 10 host volatiles and four D. armandi pheromones (Table 2). A mixture of 2 μM DarmCSP and 2 μM 1-NPN was titrated with each ligand to final concentrations of 2–16 μM. Corresponding fluorescence intensities were recorded from three independent measurements. Dissociation constants of competitive ligands were calculated according to IC50 values, using the equation: KD = [IC50]/(1+[1-NPN]/K1−NPN), where IC50 is competitive-ligand concentration at half the initial fluorescence of 1-NPN, 1-NPN is the concentration of free 1-NPN, and K1−NPN is the dissociation constant of DarmCSP with 1-NPN.

| Molecule | IC50 [µM] |
| --- | --- |
| CC[C@@H]1O[C@]2(C)CCC[C@H]1O2 (racemic) [(±)-exo-Brevicomin] | 14.48 ± 0.11 |
| CC1=C[C@H](O)[C@@H]2C[C@H]1C2(C)C (relative stereo) [(-)-trans-Verbenol] | 4.33 ± 0.1 |
| CC1=CCC2C(C1)C2(C)C (single isomer, unassigned; (+)) [(+)-3-Carene] | 3.05 ± 0.71 |
| C=C(C)[C@H]1CC=C(C)CC1 [(R)-(+)-Limonene] | 6.36 ± 0.25 |
| CC1=CC[C@H](C(C)C)C=C1 [(R)-(-)-a-Phellandrene] | 8.77 ± 0.24 |
| CC1=CCC2CC1C2(C)C (stereo not drawn) [(–)-α-Pinene] | 2.53 ± 0.11 |
| (+)-α-Pinene | 3.6 ± 0.03 |
| (+)-β-Pinene | 5.9 ± 1.31 |
| (S)-(-)-Limonene | 5.51 ± 0.42 |
| (±)-Frontalin | 26.2 ± 1.94 |
| (–)-β-Pinene | 5.93 ± 0.17 |

Same assay, conditions: calculated from IC50: KD = [IC50]/(1+[1-NPN]/K1-NPN)

| Molecule | Ki [µM] |
| --- | --- |
| CC[C@@H]1O[C@]2(C)CCC[C@H]1O2 (racemic) [(±)-exo-Brevicomin] | 9.34 ± 0.07 |
| CC1=C[C@H](O)[C@@H]2C[C@H]1C2(C)C (relative stereo) [(-)-trans-Verbenol] | 2.8 ± 0.07 |
| CC1=CCC2C(C1)C2(C)C (single isomer, unassigned; (+)) [(+)-3-Carene] | 1.97 ± 0.46 |
| C=C(C)[C@H]1CC=C(C)CC1 [(R)-(+)-Limonene] | 4.1 ± 0.16 |
| CC1=CC[C@H](C(C)C)C=C1 [(R)-(-)-a-Phellandrene] | 5.66 ± 0.16 |
| CC1=CCC2CC1C2(C)C (stereo not drawn) [(–)-α-Pinene] | 1.64 ± 0.08 |
| (+)-α-Pinene | 2.33 ± 0.02 |
| (+)-β-Pinene | 3.8 ± 0.84 |
| (S)-(-)-Limonene | 3.41 ± 0.04 |
| (±)-Frontalin | 16.9 ± 1.26 |
| (–)-β-Pinene | 3.83 ± 0.11 |

Tested on: D. armandi antennae
Test: Electroantennogram (EAG) of antennae after RNAi of DarmCSP2
Set-up: species or system Dendroctonus armandi
Settings: 48 h post-injection; semiochemical 10 μg/μL in hexane; compared with non-injected and water-injected controls; P < 0.05
Description: Freshly and synchronously emerged adults were anesthetized on glass petri dishes placed for 30 min in an ice bath, before injection with 0.2 μL dsCSP2 into the hemocoel at the suture under the hindleg. Injections used Hamilton Microliter™ syringes (700 series, RN) with 32G sharp-point needles (Hamilton, Switzerland). Controls were either injected with 0.2 μL DEPC-treated water or not injected. Subjects were then transferred onto wet filter paper placed in clear glass petri dishes for continuous culture (at 20 ± 1°C, 50% humidity). Three males and three females were removed at different time intervals (12, 24, and 48 h) from each treatment group for storage at −80°C until qRT-PCR analysis. Three replicates were performed per treatment group (non-injected, water-injected, dsCSP2-injected). RNA isolation, cDNA synthesis, and qRT-PCR procedure followed methods described above (“RNA isolation and cDNA synthesis” and “Expression patterns of CSP genes across different life stages and tissues”).
Electroantennograms (EAG) were used to detect RNAi efficiency of dsCSP2 and determine DarmCSP2 function in binding semiochemicals. Methods were modified from a previous study (Zhang et al., [2010]). Subject beetles were chosen based on post-RNAi qRT-PCR and anesthetized in an ice bath. Antennae were carefully excised at their base with a scalpel and immediately connected between two electrode holders using Spectra 360 electrode gel.
Semiochemicals were selected based on the results of fluorescence binding assays and dissolved to 10 μg/μL in hexane. Hexane alone acted as a blank control and 1 μg/μL 1-hexanol was used as a standard to normalize all EAG recordings (Zhang et al., [2010]). Semiochemical solutions (20 μL) were loaded onto filter paper strips (5 × 30 mm) and then transferred into a Pasteur pipette. The pipette tip was then inserted into a small hole in the wall of a steel tube (15 mm diameter × 15 cm length). The tube was connected to an air stimulus controller (CS-05b Syntech, the Netherlands) for constant humidified airflow delivery at a rate of 40 mL/min. The open end of the tube was positioned 1 cm before an antenna affixed between two electrode holders.
To stimulate the antenna, semiochemical-containing air was introduced through the pipette into the main air flow at a rate of 20 mL/min for 0.2 s. Each stimulus was separated by at least a 1 min interval to ensure complete antenna recovery. Signals were recorded using an IDAC-2 unit plus amplifier and Syntech EAG 2000 (Syntech, Netherlands). The control and standard were tested before and after every semiochemical solution. Antennae from12 individuals (six males and six females) were tested, with three replicates per antenna. To calculate EAG values, mean responses of the solvent control before and after exposure were subtracted from mean sample responses, then converted to a percentage of the accompanying standard (Zhang et al., [2010]).

| Molecule | Effect of dsCSP2 injection on antennae EAG activity in response to the semiochemical |
| --- | --- |
| CC1=CCC2C(C1)C2(C)C (single isomer, unassigned; (+)) [(+)-3-Carene] | significantly reduced |
| C=C1[C@H]2CC[C@H](C2)C1(C)C [(+)-Camphene] | significantly reduced |
| C=CC(=C)CCC=C(C)C [Myrcene] | significantly reduced |
| (+)-α-Pinene | significantly reduced |
| (+)-β-Pinene | significantly reduced |
| (–)-β-Pinene | significantly reduced |

Tested on: DarmCSP1
Test: Fluorescence binding assay of 1-NPN with DarmCSP1
Set-up: species or system Dendroctonus armandi
Settings: DarmCSP1, 2 μM protein titrated with 1-NPN
Excerpt: as §1, §2

| Molecule | Affinity to 1-NPN |
| --- | --- |
| c1ccc(Nc2cccc3ccccc23)cc1 [1-NPN, N-phenyl-1-naphthylamine] | no obvious affinity |
